Source: PubChem BioAssay (NCI)
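Following 48 hours of exposure in 96-well plates, responses at five concentrations were used to interpolate endpoints linearly. Definition used: TGI = concentration required for complete inhibition of growth.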

Key:
Test in all cases: NCI tumour cell line growth inhibition, 48 h
[1] = tested on: RXF 393 renal
[2] = tested on: DU-145 prostate
[3] = tested on: CCRF-CEM leukemia
[4] = tested on: T-47D breast
[5] = tested on: COLO 205 colon
[6] = tested on: 786-0 renal
[7] = tested on: EKVX NSCLC
[8] = tested on: NCI-H460 lung
[9] = tested on: A498 renal
[10] = tested on: HOP-92 NSCLC
[11] = tested on: A549 NSCLC
[12] = tested on: OVCAR-5 ovarian
[13] = tested on: SK-MEL-5 melanoma
[14] = tested on: LOX IMVI melanoma
[15] = tested on: NCI-H226 lung
[16] = tested on: NCI-H23 lung
[17] = tested on: UO-31 renal
[18] = tested on: UACC-257 melanoma
[19] = tested on: SW-620 colon
[20] = tested on: SNB-75 CNS
[21] = tested on: HOP-62 NSCLC
[22] = tested on: MDA-N
[23] = tested on: HCT-15 colon
[24] = tested on: MDA-MB-435
[25] = tested on: HL-60(TB) leukemia
[26] = tested on: SF-539 CNS
[27] = tested on: SR leukemia
[28] = tested on: SK-MEL-28 melanoma
[29] = tested on: OVCAR-3 ovarian
[30] = tested on: NCI-H522 lung
[31] = tested on: PC-3 prostate
[32] = tested on: RPMI-8226 leukemia
[33] = tested on: MDA-MB-231 breast
[34] = tested on: K-562 leukemia
[35] = tested on: MALME-3M melanoma
[36] = tested on: SK-OV-3 ovarian
[37] = tested on: KM12 colon
[38] = tested on: CAKI-1 renal
[39] = tested on: IGROV1 ovarian
[40] = tested on: HT29 colon
[41] = tested on: U251 CNS
[42] = tested on: ACHN renal
[43] = tested on: M14 melanoma
[44] = tested on: SF-268 CNS
[45] = tested on: HS 578T breast
[46] = tested on: HCC-2998 colon
[47] = tested on: HCT-116 colon
[48] = tested on: BT-549 breast
[49] = tested on: MOLT-4 leukemia
[50] = tested on: MCF7 breast
[51] = tested on: OVCAR-4 ovarian
[52] = tested on: UACC-62 melanoma
[53] = tested on: TK-10 renal
[54] = tested on: SF-295 CNS
[55] = tested on: NCI/ADR-RES ovarian
[56] = tested on: OVCAR-8 ovarian
[57] = tested on: SN12C renal
[58] = tested on: SNB-19 CNS
[59] = tested on: SK-MEL-2 melanoma

## c1cc(C[S+]2CCCC2)ccc1C[S+]1CCCC1
[1]
  TGI: > 100 µM
[2]
  TGI: > 100 µM
[3]
  TGI: > 100 µM
[4]
  TGI: > 100 µM
[5]
  TGI: > 100 µM
[6]
  TGI: > 100 µM
[7]
  TGI: > 100 µM
[8]
  TGI: > 100 µM
[9]
  TGI: > 100 µM
[10]
  TGI: > 100 µM
[11]
  TGI: > 100 µM
[12]
  TGI: > 100 µM
[13]
  TGI: > 100 µM
[14]
  TGI: > 100 µM
[15]
  TGI: > 100 µM
[16]
  TGI: > 100 µM
[17]
  TGI: > 100 µM
[18]
  TGI: > 100 µM
[19]
  TGI: > 100 µM
[20]
  TGI: > 100 µM
[21]
  TGI: > 100 µM
[22]
  TGI: > 100 µM
[23]
  TGI: > 100 µM
[24]
  TGI: > 100 µM
[25]
  TGI: > 100 µM
[26]
  TGI: > 100 µM
[27]
  TGI: > 100 µM
[28]
  TGI: > 100 µM
[29]
  TGI: > 100 µM
[30]
  TGI: > 100 µM
[31]
  TGI: > 100 µM
[32]
  TGI: > 100 µM
[33]
  TGI: > 100 µM
[34]
  TGI: > 100 µM
[35]
  TGI: > 100 µM
[36]
  TGI: > 100 µM
[37]
  TGI: > 100 µM
[38]
  TGI: > 100 µM
[39]
  TGI: > 100 µM
[40]
  TGI: > 100 µM
[41]
  TGI: > 100 µM
[42]
  TGI: > 100 µM
[43]
  TGI: > 100 µM
[44]
  TGI: > 100 µM
[45]
  TGI: > 100 µM
[46]
  TGI: > 100 µM
[47]
  TGI: > 100 µM
[48]
  TGI: > 100 µM
[49]
  TGI: > 100 µM
[50]
  TGI: > 100 µM
[51]
  TGI: > 100 µM
[52]
  TGI: > 100 µM
[53]
  TGI: > 100 µM
[54]
  TGI: > 100 µM
[55]
  TGI: > 100 µM
[56]
  TGI: > 100 µM
[57]
  TGI: > 100 µM
[58]
  TGI: > 100 µM

## CCCC(CC)c1c(O)c(O)c(C(CC)CCC)c(C(CC)CCC)c1C(CC)CCC (configuration not stated)
[1]
  TGI: > 10 µM
[2]
  TGI: > 10 µM
[3]
  TGI: > 10 µM
[4]
  TGI: > 10 µM
[5]
  TGI: > 10 µM
[6]
  TGI: > 10 µM
[7]
  TGI: > 10 µM
[8]
  TGI: > 10 µM
[9]
  TGI: > 10 µM
[10]
  TGI: > 10 µM
[11]
  TGI: > 10 µM
[12]
  TGI: > 10 µM
[13]
  TGI: > 10 µM
[14]
  TGI: > 10 µM
[15]
  TGI: > 10 µM
[59]
  TGI: > 10 µM
[16]
  TGI: > 10 µM
[17]
  TGI: > 10 µM
[18]
  TGI: > 10 µM
[19]
  TGI: > 10 µM
[21]
  TGI: > 10 µM
[22]
  TGI: > 10 µM
[23]
  TGI: > 10 µM
[24]
  TGI: > 10 µM
[25]
  TGI: > 10 µM
[26]
  TGI: > 10 µM
[27]
  TGI: > 10 µM
[28]
  TGI: > 10 µM
[29]
  TGI: > 10 µM
[30]
  TGI: > 10 µM
[31]
  TGI: > 10 µM
[32]
  TGI: > 10 µM
[33]
  TGI: > 10 µM
[34]
  TGI: > 10 µM
[35]
  TGI: > 10 µM
[36]
  TGI: > 10 µM
[37]
  TGI: > 10 µM
[38]
  TGI: > 10 µM
[39]
  TGI: > 10 µM
[40]
  TGI: > 10 µM
[41]
  TGI: > 10 µM
[42]
  TGI: > 10 µM
[43]
  TGI: > 10 µM
[44]
  TGI: > 10 µM
[45]
  TGI: > 10 µM
[46]
  TGI: > 10 µM
[47]
  TGI: > 10 µM
[48]
  TGI: > 10 µM
[50]
  TGI: > 10 µM
[51]
  TGI: > 10 µM
[52]
  TGI: > 10 µM
[53]
  TGI: > 10 µM
[54]
  TGI: > 10 µM
[55]
  TGI: > 10 µM
[56]
  TGI: > 10 µM
[57]
  TGI: > 10 µM
[58]
  TGI: > 10 µM

## NC1C2C(CC(=O)O)OCC=C3CN4CCC1(C(=O)C(=O)O)C4CC32 (configuration not stated)
[1]
  TGI: > 100 µM
[2]
  TGI: > 100 µM
[3]
  TGI: > 100 µM
[4]
  TGI: > 100 µM
[5]
  TGI: > 100 µM
[6]
  TGI: > 100 µM
[7]
  TGI: > 100 µM
[8]
  TGI: > 100 µM
[9]
  TGI: > 100 µM
[10]
  TGI: > 100 µM
[11]
  TGI: > 100 µM
[12]
  TGI: > 100 µM
[13]
  TGI: > 100 µM
[14]
  TGI: > 100 µM
[15]
  TGI: > 100 µM
[59]
  TGI: > 100 µM
[16]
  TGI: > 100 µM
[17]
  TGI: > 100 µM
[18]
  TGI: > 100 µM
[19]
  TGI: > 100 µM
[20]
  TGI: > 100 µM
[21]
  TGI: > 100 µM
[22]
  TGI: > 100 µM
[23]
  TGI: > 100 µM
[24]
  TGI: > 100 µM
[25]
  TGI: > 100 µM
[26]
  TGI: > 100 µM
[27]
  TGI: > 100 µM
[28]
  TGI: > 100 µM
[29]
  TGI: > 100 µM
[30]
  TGI: > 100 µM
[31]
  TGI: > 100 µM
[33]
  TGI: > 100 µM
[34]
  TGI: > 100 µM
[35]
  TGI: > 100 µM
[36]
  TGI: > 100 µM
[37]
  TGI: > 100 µM
[38]
  TGI: > 100 µM
[39]
  TGI: > 100 µM
[40]
  TGI: > 100 µM
[41]
  TGI: > 100 µM
[42]
  TGI: > 100 µM
[43]
  TGI: > 100 µM
[44]
  TGI: > 100 µM
[45]
  TGI: > 100 µM
[47]
  TGI: > 100 µM
[48]
  TGI: > 100 µM
[49]
  TGI: > 100 µM
[50]
  TGI: > 100 µM
[51]
  TGI: > 100 µM
[52]
  TGI: > 100 µM
[53]
  TGI: > 100 µM
[54]
  TGI: > 100 µM
[55]
  TGI: > 100 µM
[56]
  TGI: > 100 µM
[57]
  TGI: > 100 µM
[58]
  TGI: > 100 µM
